Measurements as given in patent US10947223B2, “Substituted oxazines as beta-secretase inhibitors” (AMGEN INC., priority 2016, dated 2021).

Key:
human recombinant BACE2 = human recombinant BACE2 (Homo sapiens (Human), UniProt Q9Y5Z0); assay: In vitro enzymatic BACE2 FRET assay; type: biochemical; conditions: pH 4.5, read-out: BACE2 Enzyme IC50
Description: (§1) In Vitro Enzymatic BACE1 and BACE2 FRET (Fluorescence Resonance Energy Transfer) Assays
(§2) The cDNAs for both human recombinant BACE1 and 2 with C-terminal 6-His Tags were cloned into transient protein expression vectors, which were subsequently transfected into mammalian cell lines. These recombinant proteins were further purified using Ni-NTA affinity chromatography (Qiagen). The assay buffer used in these screens was 0.05 M acetate, pH 4.5, 8% DMSO final, 100 μM genapol (which is a nonionic detergent, below its Critical Micelle Concentration). The β-secretase enzyme (0.02 nM for BACE1 and 0.64 nM for BACE2), which was pre-incubated for one hour with the test compound, typically in about 1 uL of DMSO according to a serial dilution, was added thereto. The assay was effectively started by the addition of FRET substrate (50 nM) and the combination was incubated for one hour. The FRET assay was terminated by the addition of tris buffer, which raised the pH to neutrality, and the fluorescence was determined. The FRET substrate was a peptide with commercially available fluorophore and quencher, on opposite sides of the BACE cleavage site. The specific FRET substrate used in this assay was made by Amgen in-house. Commercially available FRET substrates, for example, the FRET substrate offered with the BACE1 FRET Assay Kit sold by ThermoFisher Scientific (Catalog Number P2985), may be used in this assay with the appropriate modifications, which are within the purview of the ability of a person with ordinary skill in the art. Proteolytic cleavage of the FRET substrate released quenching of fluorescence (excitation 488 nm and emission 590 nm).

BACE1 [1] = target: T1, BACE1 (Homo sapiens (Human), UniProt P56817); assay: In vitro enzymatic BACE1 FRET assay; type: biochemical; conditions: pH 4.5, read-out: BACE1 Enzyme IC50
Description: as §1, §2
Target sequence in this assay (P56817 46-501): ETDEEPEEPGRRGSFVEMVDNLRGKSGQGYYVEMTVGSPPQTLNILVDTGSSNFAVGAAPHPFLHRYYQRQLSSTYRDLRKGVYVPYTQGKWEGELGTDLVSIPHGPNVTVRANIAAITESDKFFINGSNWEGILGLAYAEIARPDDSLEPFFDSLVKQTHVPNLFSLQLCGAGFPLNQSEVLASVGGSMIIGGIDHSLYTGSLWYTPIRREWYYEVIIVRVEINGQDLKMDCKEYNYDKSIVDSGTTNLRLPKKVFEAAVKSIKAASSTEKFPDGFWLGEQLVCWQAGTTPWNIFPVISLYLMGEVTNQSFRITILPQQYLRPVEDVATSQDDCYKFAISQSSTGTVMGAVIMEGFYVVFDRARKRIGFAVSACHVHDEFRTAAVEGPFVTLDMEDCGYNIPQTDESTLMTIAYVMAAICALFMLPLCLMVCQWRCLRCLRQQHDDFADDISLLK

BACE1 [2] = target: T1, BACE1; assay: In vitro BACE1 cell-based assay (Aβ40 in conditioned medium, HTRF); conditions: Aβ40 in conditioned medium of cells expressing APP, 24 h
Description: In Vitro BACE1 Cell-Based Assay
The cell-based assay measures inhibition or reduction of Aβ40 in conditioned medium of test compound treated cells expressing amyloid precursor protein. Cells stably expressing Amyloid Precursor Protein (APP) were plated at a density of 45K cells/well in 384 well plates (Corning/BioCoat 354663). The test compounds were then added to cells in 22-point dose response concentrations with the starting concentration being 62.5 μM. The compounds were diluted from stock solutions in DMSO and the final DMSO concentration of the test compounds on cells was 0.625%. The cells were cultivated overnight at 37° C. and 5% CO2 in DMEM supplemented with 10% FBS. After 24 h of incubation with the test compounds, the conditioned media was collected and the Aβ40 levels were determined using HTRF (Homogeneous Time Resolved Fluorescence). The IC50 of the compound was calculated from the percent of control or percent inhibition of Aβ 40 as a function of the concentration of the test compound.
The HTRF to detect Aβ40 was performed in 384 well plates (Costar 3658). The antibody pair that were used to detect Aβ 40 from cell supernatants were ConfAb40 antibody (Amgen in-house) and biotinylated 6E10 (BIOLEGEND). As an alternative to ConfAb40, a commercially available antibody, Anti-beta Amyloid 1-40 antibody [BDI350] from Abcam, Cambridge, Mass. 02139-1517 (Product code: ab20068), may be used in this assay. The concentrations were 0.35 μg/mL of ConfAb40 antibody and 1.33 μg/mL of 6E10-biotinylated antibody, as well as 4.5 μg/mL of Streptavidin Allophycocyanin Conjugate (ThermoFisher Scientific) in HTRF Buffer ([…], 1% BSA, 0.5% Tween 20).
The conditioned media was incubated with above antibodies and Streptavidin Allophycocyanin Conjugate for 30-60 minutes at 23° C. The final readout was performed on Envision from PerkinElmer.
Target sequence in this assay (P56817 46-501, species assumed): as the sequence (P56817 46-501) above

Recombinant CatD = Recombinant CatD (Homo sapiens (Human), UniProt P07339); assay: In vitro enzymatic Cathepsin D (CatD) FRET assay; type: biochemical; conditions: pH 3.5, read-out: CatD Enzyme IC50
Chain of Recombinant CatD (P07339 65-412): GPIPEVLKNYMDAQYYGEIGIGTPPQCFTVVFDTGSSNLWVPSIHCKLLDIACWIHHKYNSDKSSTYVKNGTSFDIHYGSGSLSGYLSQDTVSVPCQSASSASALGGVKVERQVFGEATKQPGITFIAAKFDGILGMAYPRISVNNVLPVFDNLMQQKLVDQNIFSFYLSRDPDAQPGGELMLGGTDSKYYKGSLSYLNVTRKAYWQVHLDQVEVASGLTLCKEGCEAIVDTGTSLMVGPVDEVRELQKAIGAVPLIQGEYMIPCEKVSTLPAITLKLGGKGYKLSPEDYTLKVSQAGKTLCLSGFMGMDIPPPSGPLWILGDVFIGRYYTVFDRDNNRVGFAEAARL
Description: In Vitro Enzymatic Cathepsin D (CatD) FRET Assay
Recombinant CatD was expressed in CHO cells. The assay buffer for CatD was 0.05 M citrate pH 3.5, 10% DMSO final, 5 mM CHAPS. The CatD enzyme (9 nM) was pre-incubated for one hour with inhibitors, typically in about 1 uL of DMSO according to a serial dilution, is added thereto. The assays was effectively started by the addition of different FRET substrates (20 nM for CatD) and the combination was incubated for one hour. The FRET assay was terminated with by addition of tris buffer, which raises the pH to neutrality, and the fluorescence was determined. The FRET substrate was a peptide with commercially available fluorophore and quencher, on opposite sides of the CatD cleavage site. The CatD substrate peptide sequence was based on sequence #1 of Table 1 from Gulnik et al., FEBS Lett. 413(2):379-384 (1997). Proteolytic cleavage of the FRET substrate released quenching of fluorescence (CatD excitation 500 nm and emission 580 nm).
The in vitro CatD FRET assay data for each of the Examples is provided in Table 2, conducted by the first procedure described above. […] Thus, with this surprising selectivity profile, the compounds provided herein are believed to minimize, reduce or completely eliminate any risk of retinal atrophy and abnormal development of the eye and of the retinal pigmented epithelium as it relates to the normal function and activity of CatD.

Chain of human recombinant BACE2 (Q9Y5Z0 63-518): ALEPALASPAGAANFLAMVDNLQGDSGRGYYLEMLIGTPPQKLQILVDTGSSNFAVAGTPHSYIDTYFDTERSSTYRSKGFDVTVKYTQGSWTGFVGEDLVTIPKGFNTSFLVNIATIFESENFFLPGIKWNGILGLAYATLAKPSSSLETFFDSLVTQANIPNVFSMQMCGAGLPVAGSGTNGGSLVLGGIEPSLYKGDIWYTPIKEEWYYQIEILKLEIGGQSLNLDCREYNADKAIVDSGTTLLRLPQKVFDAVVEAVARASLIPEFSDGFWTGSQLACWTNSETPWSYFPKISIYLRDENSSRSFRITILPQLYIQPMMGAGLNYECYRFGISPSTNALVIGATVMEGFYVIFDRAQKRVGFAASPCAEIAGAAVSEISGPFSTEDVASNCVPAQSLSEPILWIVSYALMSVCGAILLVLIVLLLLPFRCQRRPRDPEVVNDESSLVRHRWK

Row | SMILES | IC50 (human recombinant BACE2) [µM] | IC50 (BACE1 [1]) [µM] | IC50 (BACE1 [2]) [µM] | IC50 (Recombinant CatD) [µM]
1 | C#CCOc1cnc(/C(F)=C/c2ccc(F)c([C@@]3(C)N=C(N)OC[C@@H]3OCC(F)(F)F)c2)cn1 [Example 111, (4R,5R)-4-(2-fluoro-5-((Z)-2-fluoro-2-(5-(prop-2-yn-1-yloxy)pyrazin-2-yl)vinyl)phenyl)-4-methyl-5-(2,2,2-trifluoroethoxy)-5,6-dihydro-4H-1,3-oxazin-2-amine] | 16 | 0.152 | 0.059 | 664
2 | C[C@]1(c2cc(/C=C(\F)c3ccc(C#N)cn3)ccc2F)N=C(N)OCC1(F)F [Example 114, (R,Z)-6-(2-(3-(2-amino-5,5-difluoro-4-methyl-5,6-dihydro-4H-1,3-oxazin-4-yl)-4-fluorophenyl)-1-fluorovinyl)nicotinonitrile] | 2.73 | 0.256 | 2.66 | > 400
3 | C[C@]1(c2cc(/C=C(\F)c3cnc(C#N)cn3)ccc2F)N=C(N)OC[C@@H]1OCC(F)(F)F [Example 112, 5-((Z)-2-(3-((4R,5R)-2-amino-4-methyl-5-(2,2,2-trifluoroethoxy)-5,6-dihydro-4H-1,3-oxazin-4-yl)-4-fluorophenyl)-1-fluorovinyl)pyrazine-2-carbonitrile] | 6.36 | 0.119 | 0.027 | 970
4 | NC1=N[C@@](c2cc(/C=C(\F)c3ccc(Br)cn3)ccc2F)(C(F)F)[C@H]2C[C@H]2O1 [Example 100, (1R,5S,6R)-5-(5-((Z)-2-(5-bromopyridin-2-yl)-2-fluorovinyl)-2-fluorophenyl)-5-(difluoromethyl)-2-oxa-4-azabicyclo[4.1.0]hept-3-en-3-amine] | 0.564 | 0.257 | 0.948 | 63.9
5 | C[C@]1(c2nc(/C=C(\F)c3ccc(C#N)cn3)ccc2F)N=C(N)OCC1(F)F [Example 116, (R,Z)-6-(2-(6-(2-amino-5,5-difluoro-4-methyl-5,6-dihydro-4H-1,3-oxazin-4-yl)-5-fluoropyridin-2-yl)-1-fluorovinyl)nicotinonitrile] | 11.4 | 1.05 | 0.676 | > 400
6 | NC1=N[C@@](c2cc(/C=C(\F)c3ccc(Cl)cn3)ccc2F)(C(F)F)[C@H]2C[C@H]2O1 [Example 101, (1R,5S,6R)-5-(5-((Z)-2-(5-chloropyridin-2-yl)-2-fluorovinyl)-2-fluorophenyl)-5-(difluoromethyl)-2-oxa-4-azabicyclo[4.1.0]hept-3-en-3-amine] | 0.421 | 0.954 | 1.12 | 215
7 | C[C@@]1(c2cc(/C=C(\F)c3ccc(Cl)cn3)ccc2F)CO[C@@](C)(C(F)(F)F)C(N)=N1 [Example 103, (2R,5R)-5-(5-((Z)-2-(5-chloropyridin-2-yl)-2-fluorovinyl)-2-fluorophenyl)-2,5-dimethyl-2-(trifluoromethyl)-5,6-dihydro-2H-1,4-oxazin-3-amine] | 0.017 | 0.065 | 0.693 | 19.2

Second part, the compound after the results:

Row | IC50 (human recombinant BACE2) [µM] | IC50 (BACE1 [1]) [µM] | IC50 (BACE1 [2]) [µM] | IC50 (Recombinant CatD) [µM] | SMILES
8 | 1.51 | 0.341 | 0.09 | 524 | C[C@]1(c2cc(/C=C(\F)c3cnc(Cl)cn3)ccc2F)N=C(N)OC[C@@H]1OCC(F)(F)F [Example 110, (4R,5R)-4-(5-((Z)-2-(5-chloropyrazin-2-yl)-2-fluorovinyl)-2-fluorophenyl)-4-methyl-5-(2,2,2-trifluoroethoxy)-5,6-dihydro-4H-1,3-oxazin-2-amine]
9 | 0.033 | 0.118 | 0.663 | 39.3 | C[C@@]1(c2cc(/C=C(\F)c3cnc(Cl)cn3)ccc2F)CO[C@@](C)(C(F)(F)F)C(N)=N1 [Example 108, (2R,5R)-5-(5-((Z)-2-(5-chloropyrazin-2-yl)-2-fluorovinyl)-2-fluorophenyl)-2,5-dimethyl-2-(trifluoromethyl)-5,6-dihydro-2H-1,4-oxazin-3-amine]
10 | 0.375 | 0.05 | 0.112 | 82.5 | C#CCOc1cnc(/C(F)=C/c2ccc(F)c([C@]3(C)CO[C@@](C)(C(F)(F)F)C(N)=N3)c2)cn1 [Example 107, (2R,5R)-5-(2-fluoro-5-((Z)-2-fluoro-2-(5-(prop-2-yn-1-yloxy)pyrazin-2-yl)vinyl)phenyl)-2,5-dimethyl-2-(trifluoromethyl)-5,6-dihydro-2H-1,4-oxazin-3-amine]
11 | 5.84 | 0.283 | 4.67 | 119 | C#CCOc1cnc(/C(F)=C/c2ccc(F)c([C@@]3(C)N=C(N)OCC3(F)F)c2)cn1 [Example 115, (R,Z)-5,5-difluoro-4-(2-fluoro-5-(2-fluoro-2-(5-(prop-2-yn-1-yloxy)pyrazin-2-yl)vinyl)phenyl)-4-methyl-5,6-dihydro-4H-1,3-oxazin-2-amine]
12 | 3.87 | 0.125 | 0.014 | 1190 | C[C@]1(c2cc(/C=C(\F)c3ccc(C#N)cn3)ccc2F)N=C(N)OC[C@@H]1OCC(F)(F)F [Example 109, 6-((Z)-2-(3-((4R,5R)-2-amino-4-methyl-5-(2,2,2-trifluoroethoxy)-5,6-dihydro-4H-1,3-oxazin-4-yl)-4-fluorophenyl)-1-fluorovinyl)nicotinonitrile]
13 | 1.59 | 0.666 | 4.13 | 88.4 | C[C@@]1(c2cc(/C=C(\F)c3cnc(OCC(F)(F)C(F)F)cn3)ccc2F)CO[C@@](C)(C(F)(F)F)C(N)=N1 [Example 106, (2R,5R)-5-(2-fluoro-5-((Z)-2-fluoro-2-(5-(2,2,3,3-tetrafluoropropoxy)pyrazin-2-yl)vinyl)phenyl)-2,5-dimethyl-2-(trifluoromethyl)-5,6-dihydro-2H-1,4-oxazin-3-amine]
14 | 0.095 | 0.026 | 0.152 | 204 | C[C@@]1(c2cc(/C=C(\F)c3ccc(C#N)cn3)ccc2F)CO[C@@](C)(C(F)(F)F)C(N)=N1 [Example 104, 6-((Z)-2-(3-((3R,6R)-5-amino-3,6-dimethyl-6-(trifluoromethyl)-3,6-dihydro-2H-1,4-oxazin-3-yl)-4-fluorophenyl)-1-fluorovinyl)nicotinonitrile]
15 | 0.273 | 0.046 | 0.13 | 415 | C[C@@]1(c2cc(/C=C(\F)c3cnc(C#N)cn3)ccc2F)CO[C@@](C)(C(F)(F)F)C(N)=N1 [Example 105, 5-((Z)-2-(3-((3R,6R)-5-amino-3,6-dimethyl-6-(trifluoromethyl)-3,6-dihydro-2H-1,4-oxazin-3-yl)-4-fluorophenyl)-1-fluorovinyl)pyrazine-2-carbonitrile]
